According to EP4691458A1, “SELF-MICROEMULSION PHARMACEUTICAL PREPARATION COMPOSITION CONTAINING ALK KINASE INHIBITOR AND PREPARATION METHOD THEREFOR” (Shouyao Holdings (Beijing) Co., Ltd., priority 2023, dated 2024):

Legend:
[1] = Solubility of the compound of formula (I) at different pH; format: physicochemical
Procedure: (§1) The compound of formula (I) has strong hydrophobicity, poor water solubility, and significant pH dependence. It has high solubility at low pH (about 30 mg/ml at pH 1.2), and the solubility decreases sharply with increasing pH (about 10 ug/ml in water). […] Therefore, it is an urgent problem to overcome the shortcomings of the compound of formula (I), such as strong hydrophobicity, poor water solubility, and thermal instability, and to prepare it into a formulation with stable quality, good patient compliance, and wide clinical applicability.

[2] = Thermal stability of the compound of formula (I); format: physicochemical; details: degradation impurities generated at high temperatures
Procedure: as §1

solubility ([1]; in water): ~0.01 mg/mL | solubility ([1]; simulated gastric fluid, at pH 1.2): ~30 mg/mL | thermal stability [2]: thermally unstable
Structure (SMILES): COc1cc(N2CCC(N(C)C)CC2)ccc1Nc1nc2c(c(Nc3ccccc3S(=O)(=O)C(C)C)n1)CCN2 [compound of formula (I), N^2-(4-(4-(dimethylamino)piperidin-1-yl)-2-methoxyphenyl)-N^4-(2-(isopropylsulfonyl)phenyl)-6,7-dihydro-5H-pyrrolo[2,3-d]pyrimidine-2,4-diamine]
